Assay results taken from PubChem BioAssay AID624167 (Sanford-Burnham Center for Chemical Genomics, 2012).
Calls of active or inactive are those of the source.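 How the source made its calls: active means mean IC50 for reducing PEG3 promoter reporter signal at or below a set limit, with IC50 above the limit in both counter screens; inactive means the rest, including counter screen hits.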

What was measured:
[1] = inhibition of PEG-3 promoter-driven reporter – cell-based, HeLa, luciferase, CREF/GAPDH counter-screen panel, dose response (AID 624167); conditions: CREF/GAPDH counter-screens; GAPDH; mean of runs
[2] = target: PEG-3 (UniProt Q6IN02); assay: as above; conditions: HeLa PEG-Prom luciferase reporter, overnight, CREF/GAPDH counter-screens, mean of runs
Sequence of PEG-3 (UniProt Q6IN02) (Q6IN02 whole entry, looked up): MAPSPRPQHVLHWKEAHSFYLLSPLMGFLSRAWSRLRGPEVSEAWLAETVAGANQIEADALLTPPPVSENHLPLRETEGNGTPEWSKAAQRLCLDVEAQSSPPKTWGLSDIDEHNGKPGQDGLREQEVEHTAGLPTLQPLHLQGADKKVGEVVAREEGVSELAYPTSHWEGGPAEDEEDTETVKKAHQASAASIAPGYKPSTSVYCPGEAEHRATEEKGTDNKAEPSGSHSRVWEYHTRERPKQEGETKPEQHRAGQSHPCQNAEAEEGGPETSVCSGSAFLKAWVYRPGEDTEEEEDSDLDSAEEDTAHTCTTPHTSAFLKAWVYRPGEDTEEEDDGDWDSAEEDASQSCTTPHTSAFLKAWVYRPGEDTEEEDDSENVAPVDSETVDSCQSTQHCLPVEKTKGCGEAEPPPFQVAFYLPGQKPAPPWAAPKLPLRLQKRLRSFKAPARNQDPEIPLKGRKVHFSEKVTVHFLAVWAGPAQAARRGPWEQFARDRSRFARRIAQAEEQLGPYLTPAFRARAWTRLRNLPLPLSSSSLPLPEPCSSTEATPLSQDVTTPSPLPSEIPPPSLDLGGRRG

[3] = system: Rat fibroblasts (CREF); assay: as above; conditions: CREF/GAPDH counter-screens
[4] = system: GAPDH; assay: as above; conditions: CREF/GAPDH counter-screens
[5] = system: PEG-3; assay: as above; conditions: HeLa PEG-Prom luciferase reporter, overnight, CREF/GAPDH counter-screens
[6] = run 1, dose range 1, individual replicate IC50 per panel
[7] = run 2, dose range 1, individual replicate IC50 per panel

Structure (SMILES) | IC50 [1] | IC50 [2] | IC50 ([3]; mean of runs) | IC50 [3, 6] | IC50 [3, 7] | IC50 [4, 6] | IC50 [4, 7] | IC50 [5, 6] | IC50 [5, 7]
O=C1C=CC(=O)N1c1ccc(-c2nc3ccccc3o2)cc1 | inactive | 9.67 µM | 12.8 µM | 5.55 µM | 20 µM | 41.6 µM | 35.3 µM | 11.3 µM | 8.02 µM
COc1ccc2c(c1)c(=Cc1ccc(N(C)C)cc1)c1cc(-c3ccccc3)[n+](C)n12 | 7.04 µM | 2.27 µM | 26.9 µM | 24.8 µM | 29.1 µM | 6.61 µM | 7.46 µM | 3.17 µM | 1.37 µM
COC(=O)C1C=CC(OC2OC(COC(C)=O)C(OC(C)=O)C(OC(C)=O)C2OC(C)=O)n2c(=O)n(-c3ccccc3)c(=O)n21 (centres undefined) | 18.5 µM | 9.13 µM | 8.06 µM | 6.83 µM | 9.29 µM | 19.4 µM | 17.7 µM | 10.2 µM | 8.07 µM
O=C(O)c1ccc(N/N=C/c2ccc3nccnc3c2)cc1 | 1.38 µM | 1.31 µM | > 100 µM (inactive) | > 100 µM | > 100 µM | 1.36 µM | 1.41 µM | 1.26 µM | 1.36 µM
CS(=O)(=O)Nc1cccc(NC(=O)C2Cc3c(-c4ccccc4)ccnc3O2)c1 (centres undefined) | inactive | 7.38 µM | > 100 µM (inactive) | > 100 µM | > 100 µM | > 100 µM | 86.7 µM | 7.17 µM | 7.59 µM
Cc1cc(Br)ccc1NC(=O)CNC(=O)Cn1ncc(Cl)c(Cl)c1=O | 10.9 µM | 6.59 µM | 54.2 µM (inactive) | 8.5 µM | > 100 µM | 10.1 µM | 11.8 µM | 8.31 µM | 4.87 µM
O=C(CNC(=O)C(c1ccccc1)c1ccccc1)N/N=C/c1ccc(O)cc1O | > 100 µM (inactive) | inactive | > 100 µM (inactive) | > 100 µM | > 100 µM | > 100 µM | > 100 µM | 3.59 µM | > 100 µM
CCC(C)Cn1c(O)cc2nn(-c3nc4ccccc4s3)c(=O)c-2c1C (centres undefined) | 2.79 µM | 3 µM | 65.6 µM (inactive) | 72.2 µM | 58.9 µM | 3.06 µM | 2.52 µM | 5.8 µM | < 0.2 µM
COc1cc(C(=O)N/N=C(\c2ccccc2)c2ccccn2)cc(OC)c1OC | > 100 µM (inactive) | 2.9 µM | 58.4 µM (inactive) | 44.9 µM | 72 µM | > 100 µM | > 100 µM | 3.09 µM | 2.71 µM
COc1ccc(N(C(=O)CCl)C(C(=O)NC2CCCCC2)c2cccnc2)cc1 (centres undefined) | inactive | 8.05 µM | 2.68 µM | 2.81 µM | 2.56 µM | 40.4 µM | 39.6 µM | 6.62 µM | 9.49 µM
CS(=O)(=O)Nc1cccc(NC(=O)C2Cc3c(-c4cccc(F)c4)ccnc3O2)c1 (centres undefined) | inactive | 2.87 µM | > 100 µM (inactive) | > 100 µM | > 100 µM | > 100 µM | 44.6 µM | 3.11 µM | 2.62 µM
COc1cc(/C=C2\SC(=Nc3ccccc3OC)NC2=O)ccc1O | > 100 µM (inactive) | inactive | > 100 µM (inactive) | > 100 µM | > 100 µM | > 100 µM | > 100 µM | 4.7 µM | > 100 µM
C=C1CC2(OC1=O)c1ccccc1CCc1ccccc12 | 13.8 µM | 4.84 µM | 7.93 µM | 7.58 µM | 8.28 µM | 15.2 µM | 12.5 µM | 5.7 µM | 3.98 µM
CC(=O)OC1CC[C@]2(C#N)[C@H]3CC[C@]4(C)[C@H](C5C=CC(=O)O5)CCC4(O)C3CCC2(O)C1 (some centres undefined) | 10.1 µM | 10.4 µM | > 100 µM (inactive) | > 100 µM | > 100 µM | 3.88 µM | 16.4 µM | 9.87 µM | 11 µM
Cc1cc(NC(c2ccc(Cl)cc2)c2ccc3cccnc3c2O)no1 (centres undefined) | > 100 µM (inactive) | 3.83 µM | 77.2 µM (inactive) | > 100 µM | 54.4 µM | > 100 µM | > 100 µM | 7.2 µM | 0.472 µM
CCOC(=O)c1c(SCCN2CCCCC2)n(-c2ccccc2)c(=S)n(-c2ccccc2)c1=O | 18.8 µM | 7.28 µM | 13.6 µM | 12.9 µM | 14.4 µM | 18.8 µM | 18.8 µM | 10.1 µM | 4.4 µM

Structure (SMILES) | IC50 [1] | IC50 [2] | IC50 ([3]; mean of runs) | IC50 [3, 6] | IC50 [3, 7] | IC50 [4, 6] | IC50 [4, 7] | IC50 [5, 6] | IC50 [5, 7]
CC(C)CC1C(=O)N(Cc2cn(Cc3ccco3)nn2)CCS(=O)(=O)N1Cc1ccc(-c2ccc(F)cc2)cc1 (centres undefined) | inactive | 8.24 µM | 67.5 µM (inactive) | > 100 µM | 34.9 µM | > 100 µM | 47.1 µM | 10.4 µM | 6.09 µM
Cc1ccccc1CNC(=O)C1CCCN(c2nnc(C)c3c(C)n(-c4ccccc4)nc23)C1 (centres undefined) | inactive | 10.4 µM | 19.8 µM | 23.9 µM | 15.6 µM | 41.3 µM | 25.2 µM | 14.6 µM | 6.15 µM
COc1ccc(-n2cc(-c3ccccc3)c3c(N4CCOCC4)ncnc32)cc1 | 21.4 µM | 10.3 µM | 68.5 µM (inactive) | 66.9 µM | 70.1 µM | 21.3 µM | 21.4 µM | 12.1 µM | 8.51 µM
Nc1nonc1-n1nnc(C(=O)N/N=C/c2cc(Br)ccc2O)c1CNc1ccccc1 | inactive | 10.9 µM | 77.8 µM (inactive) | > 100 µM | 55.7 µM | 45.2 µM | 59.3 µM | 4.19 µM | 17.6 µM
Clc1ccccc1/C=C/c1nc(-c2ccccn2)no1 | 1.86 µM | inactive | 28 µM | 25.7 µM | 30.3 µM | 3.51 µM | < 0.2 µM | 3.68 µM | > 100 µM
CCCC(=O)NC(c1ccc(OC)cc1)c1ccc2cccnc2c1O (centres undefined) | inactive | 1.74 µM | 50.7 µM (inactive) | > 100 µM | 1.48 µM | 57.7 µM | 70.4 µM | 2.76 µM | 0.719 µM
CS(=O)(=O)c1ccc(-c2cn3cc(C(=O)O)ccc3n2)cc1 | 27.6 µM | 10.2 µM | 42.9 µM | 42.3 µM | 43.4 µM | 24.6 µM | 30.5 µM | 6.91 µM | 13.4 µM
Cc1ccsc1/C=N/Nc1cccc(C(=O)O)c1 | 5.35 µM | 1.6 µM | > 100 µM (inactive) | > 100 µM | > 100 µM | 3.26 µM | 7.43 µM | 1.27 µM | 1.92 µM
O=C(N/N=C/c1sc(N2CCOCC2)nc1-c1ccccc1)c1cccc(S(=O)(=O)N2CCCC2)c1 | inactive | 5.47 µM | 54 µM (inactive) | > 100 µM | 8 µM | 18.9 µM | 42 µM | 5.9 µM | 5.05 µM
COc1cccc(OC)c1C(=O)Nc1cc(C)nn1-c1nc2ccccc2[nH]1 | > 100 µM (inactive) | 3.1 µM | > 100 µM (inactive) | > 100 µM | > 100 µM | > 100 µM | > 100 µM | 2.08 µM | 4.13 µM
CCCCCCN1C=C/C(=C\C=C(C#N)C#N)c2ccccc21 | inactive | 10.2 µM | 55.3 µM (inactive) | > 100 µM | 10.7 µM | 1.24 µM | > 100 µM | 13.4 µM | 7.03 µM
Cc1nc(C)c(C(=O)N/N=C/c2cc(Br)ccc2O)s1 | > 100 µM (inactive) | inactive | 64.9 µM (inactive) | 52.3 µM | 77.5 µM | > 100 µM | > 100 µM | 5.65 µM | > 100 µM
CN1OC[C@@H]2CN(S(=O)(=O)c3cccc(C(F)(F)F)c3)[C@H](c3ccc(-c4cc5ccccc5o4)cc3)C[C@@H]21 | inactive | 9.9 µM | > 100 µM (inactive) | > 100 µM | > 100 µM | 44.3 µM | 37.8 µM | 18.7 µM | 1.06 µM
O=C(CNc1ccccc1)N/N=C/c1c(O)ccc2ccccc12 | > 100 µM (inactive) | inactive | 51.1 µM (inactive) | 57.4 µM | 44.9 µM | > 100 µM | > 100 µM | 3.48 µM | > 100 µM
Cc1ccc(/C=C2\SC(=S)N(CCCC(=O)NNC(=O)c3ccccc3O)C2=O)cc1 | 5.04 µM | 0.95 µM | > 100 µM (inactive) | > 100 µM | > 100 µM | 2.65 µM | 7.43 µM | 1.71 µM | < 0.2 µM
